# Values quoted from earlier work in patent US6348502B1, “Formulations for the treatment of gastro-oesophageal reflux” (Reckitt & Colman Products Limited, priority 1998, dated 2002).
# How the values were obtained:
# [1] = system: acetic-acid induced gastric ulcers
# gastric acid secretion = conditions: rats
# [2] = system: topical injury by noxious agents such as ethanol; conditions: white rabbits, administered at the gastro-oesophageal junction via cannulae
# [3] = system: capsaicin-sensitive neurones; conditions: rats; stimulation of capsaicin-sensitive neurones
smiles,measurement,setting,value
"COc1cc(CNC(=O)CCCC/C=C/C(C)C)ccc1O [capsaicin, (E)-(N)-[(4-hydroxy-3-methoxphenyl)-methyl]-8-methyl-6-nonenamide]",protection of the gastric mucosa against experimental injury,[1]; acetic-acid induced gastric ulceration in rats,protects the gastric mucosa against experimental injury
same,healing of acetic-acid induced gastric ulcers,"[1]; rats, introduced directly into an ex vivo chamber",promotes the healing
same,healing of acetic-acid induced gastric ulcers after prior administration of cimetidine,"[1]; rats, prior administration of cimetidine",blunted
same,effect on gastric acid secretion,gastric acid secretion,no effect
same,mucosal protection against topical injury,[2],provides mucosal protection
same,duodenal bicarbonate secretion,[3],increase duodenal bicarbonate secretion
